{"source": "patent US12358966B2", "about": "“Inducible caspases and methods for use” (Poseida Therapeutics, Inc., priority 2016, dated 2025)", "key": {"cells [1]": {"tested_on": "cells", "test": "Amount of AP1903 needed in vitro for effective signaling of cells", "type": "cell-based", "details": "calculated with 1600 Da MW", "description": "The fixed dose of AP1903 (Rimiducid) for injection used, for example, may be 0.4 mg/kg intravenously infused over 2 hours. The amount of AP1903 (Rimiducid) needed in vitro for effective signaling of cells is 10-100 nM (1600 Da MW). This equates to 16-160 μg/L or […]. Doses up to 1 mg/kg were well-tolerated in the Phase I study of AP1903 (Rimiducid) described above. Therefore, 0.4 mg/kg may be a safe and effective dose of AP1903 (Rimiducid) for this Phase I study in combination with the therapeutic cells."}, "Human pan T-cells": {"tested_on": "Human pan T-cells", "test": "iC9 safety switch test: viability of modified T cells by flow cytometry with 7-AAD after incubation with AP1903", "type": "cell-based", "details": "24 hours incubation, 0-1000 nM tested", "from_the_text": "Human pan T-cells were nucleofected using an Amaxa 4D nucleofector with one of four piggyBac transposons. Modified T cells receiving the “mock” condition were nucleofected with an empty piggyBac transposon. Modified T cells received either a piggyBac […] containing a therapeutic agent alone (a sequence encoding a CARTyrin) or a piggyBac […] containing an integrated iC9 sequence and a therapeutic agent (a sequence encoding a CARTyrin).\nTo test the iC9 safety switch, each of the four modified T cells were incubated for 24 hours with 0, 0.1 nM, 1 nM, 10 nM, 100 nM or 1000 nM AP1903 (an induction agent for […], also known as Rimiducid). Viability was assessed by flow cytometry using 7-aminoactinomycin D (7-AAD), a fluorescent intercalator, as a marker for cells undergoing apoptosis.\nCell viability was assessed at day 12 (see FIG. 2). […] Moreover, cell viability was assessed at day 19 (see FIG. 3). […]\nA quantification of the aggregated results was performed and is provided in FIG. 4, showing the significant impact of the iC9 safety switch on the percent cell viability as a function of the concentration of the induction agent (AP1903, also known as Rimiducid) of the iC9 switch for each modified cell type at either day 12 (FIG. 2 and left graph) or day 19 (FIG. 3 and right graph)."}, "[2]": {"tested_on": "cells comprising P-BCMA-101", "test": "In vivo killing of cells comprising P-BCMA-101 via iC9 safety switch in NSG mice (huCD45+ cells in blood, spleen, bone marrow)", "details": "AP1903 0.005-5 mg/kg on day 12, analysis 24 hours later", "description": "FIG. 5 is a diagram showing a study timeline and outline for an in vivo study. NSG mice were IV injected with MM.1S/luciferase^+ cells, staged at day 8, injected with T cells on day 9, and treated with AP1903 (Rimiducid) on day 12 at the indicated doses. 24 hours later, mice were euthanized and blood, spleen, and bone marrow cells were collected and stained for the presence of huCD45^+ cells.\nBlood, spleen, and bone marrow cells were analyzed by flow cytometry for the presence of huCD45^+ cells. The relative viability was determined by: ((#of huCD45 cells/ #of msCD45 cells)/(Average of huCD45/msCD45 in no treatment group))*100% per 1,500 bead events for each sample. Each data point represents a different mouse. On the x-axis is plotted percent Relative CAR-T Viability from 0 to 175 in increments of 25. […]\nNSG mice were IV injected with MM.1S/luciferase^+ cells, staged at day 8, injected with T cells on day 9, and treated with AP1903 (Rimiducid) on day 12 at the indicated doses. […] Blood, spleen, and bone marrow cells were analyzed by flow cytometry for the presence of huCD45^+ cells. The relative viability was determined by dividing the number of huCD45 cells by the number of msCD45 cells and normalizing to the average of huCD45/msCD45 in the no treatment group times, 100% per 1,500 bead events for each sample. […]"}, "cells [3]": {"tested_on": "cells", "details": "cited from earlier work"}, "[4]": {"details": "cited from earlier work"}}, "note": "Like-named read-outs stand apart in the source and are kept apart here.", "data": [{"compound": "CC[C@H](C(=O)N1CCCC[C@H]1C(=O)O[C@H](CCc1ccc(OC)c(OC)c1)c1cccc(OCC(=O)NCCNC(=O)COc2cccc([C@@H](CCc3ccc(OC)c(OC)c3)OC(=O)[C@@H]3CCCCN3C(=O)[C@@H](CC)c3cc(OC)c(OC)c(OC)c3)c2)c1)c1cc(OC)c(OC)c(OC)c1", "note": "(relative stereo) [AP1903, 2-Piperidinecarboxylic acid, 1-[(2S)-1-oxo-2-(3,4,5-trimethoxyphenyl)butyl]-, 1,2-ethanediylbis[imino (2-oxo-2,1-ethanediyl)oxy-3,1-phenylene[(1R)-3-(3,4-dimethoxyphenyl)propylidene]]ester, [2S-[1(R*),2R*[S*[S*[1(R*),2R*]]]]]-(9C1)]", "values": [{"measurement": "amount needed for effective signaling, converted to dose", "setting": "cells [1]", "result": "0.016 to 1.6", "unit": "µg/kg"}, {"measurement": "amount needed for effective signaling, converted to mass concentration", "setting": "cells [1]", "result": "16 to 160", "unit": "µg/L"}, {"measurement": "lowest concentration of the study at which apoptosis is induced", "setting": "Human pan T-cells", "result": 0.1, "unit": "nM"}, {"measurement": "killing of cells comprising P-BCMA-101 in vivo", "setting": "[2]", "result": "highly efficient killing"}, {"measurement": "amount needed in vitro for effective signaling of cells", "setting": "cells [3]", "result": "10 to 100", "unit": "nM"}, {"measurement": "plasma levels versus dose", "setting": "[4]; 0.01, 0.05, 0.1, 0.5 and 1.0 mg/kg", "result": "directly proportional to dose"}, {"measurement": "plasma level as % of maximal concentration", "setting": "[4]; 0.5 hours post-dose", "result": "approximately 18%"}, {"measurement": "plasma level as % of maximal concentration", "setting": "[4]; 2 hours post-dose", "result": "~7", "unit": "%"}, {"measurement": "plasma level as % of maximal concentration", "setting": "[4]; 10 hours post-dose", "result": "~1", "unit": "%"}, {"measurement": "well-tolerated dose", "setting": "[4]; Phase I study", "result": "up to 1 mg/kg"}, {"measurement": "safety and tolerability", "setting": "[4]; all dose levels 0.01-1.0 mg/kg, single dose IV over 2 hours", "result": "safe and well tolerated at all dose levels"}, {"measurement": "pharmacokinetic profile", "setting": "[4]; healthy volunteers", "result": "favorable pharmacokinetic profile"}, {"measurement": "mean Cmax", "setting": "[4]; over the 0.01-1.0 mg/kg dose range, IV infusion over 2 hours, 24 healthy volunteers", "result": "10 to 1275", "unit": "ng/mL"}]}]}
